The values that follow come from ChEMBL document CHEMBL3862001, “Tetrahydropyrazolo[4,3-c]pyridine derivatives as potent and peripherally selective cannabinoid-1 (CB1) receptor inverse agonists” (Bioorg Med Chem Lett, 2016).

Series [1] deals with Cannabinoid receptor 1 (Homo sapiens, UniProt P21554). In words: Inverse agonist activity at human CB1 receptor transfected in HEK293 cells assessed as increase of forskolin-induced cAMP production incubated for 30 mins followed by d2 labeled cAMP addition measured after 60 mins by HTRF assay. The series is classed as functional, cell-based. A general note: cAMP levels reflect the balance of adenylyl cyclase and phosphodiesterase activity.

For series [2], the target named is Cannabinoid receptor 2 (Homo sapiens, UniProt P34972). The series can be described thus: Inverse agonist activity at human CB2 receptor transfected in HEK293 cells assessed as increase of forskolin-induced cAMP production incubated for 30 mins followed by d2 labeled cAMP addition measured after 60 mins by HTRF assay. Format: functional, cell-based.
Series [3] is described as follows: Drug uptake in C57BL/6J mouse brain at 20 mg/kg, po measured at 2 hrs. Format: ADME, organism-based. Particulars: for concentration at 2 h: C57BL/6J, brain, read-out: Drug uptake; for Drug uptake: in vivo, 2 h.
Series [4] in a line: Plasma concentration in C57BL/6J mouse at 20 mg/kg, po measured at 2 hrs. The series is classed as ADME, organism-based.
A short description of series [5]: Drug uptake in C57BL/6J mouse brain at 20 mg/kg, po measured at 4 hrs. The series is classed as ADME, organism-based. The settings on record: for Drug uptake: in vivo, 4 h.
Series [6] is described as follows: Plasma concentration in C57BL/6J mouse at 20 mg/kg, po measured at 4 hrs. The series is classed as ADME, organism-based.
A short description of series [7]: Ratio of drug level in brain to plasma in C57BL/6J mouse at 20 mg/kg, po measured at 4 hrs. The series is classed as ADME, organism-based. The settings on record: read-out: BPR.
Series [8] in a line: Drug uptake in C57BL/6J mouse brain at 30 mg/kg, po measured at 4 hrs. The series is classed as ADME, organism-based. The settings on record: read-out: Drug uptake.
The nature of series [9]: Plasma concentration in C57BL/6J mouse at 30 mg/kg, po measured at 4 hrs. The series is classed as ADME, organism-based.
Series [10] in a line: Ratio of drug level in brain to plasma in C57BL/6J mouse at 20 mg/kg, po measured at 2 hrs. The series is classed as ADME, organism-based. The settings on record: read-out: BPR.
Series [11] can be described thus: Ratio of drug level in brain in C57BL/6J mouse at 20 mg/kg, po measured at 4 hrs to drug level in plasma in C57BL/6J mouse at 20 mg/kg, po measured at 2 hrs. Format: ADME, organism-based. The settings on record: read-out: BPR.

Sequence of Cannabinoid receptor 1 (P21554 whole entry): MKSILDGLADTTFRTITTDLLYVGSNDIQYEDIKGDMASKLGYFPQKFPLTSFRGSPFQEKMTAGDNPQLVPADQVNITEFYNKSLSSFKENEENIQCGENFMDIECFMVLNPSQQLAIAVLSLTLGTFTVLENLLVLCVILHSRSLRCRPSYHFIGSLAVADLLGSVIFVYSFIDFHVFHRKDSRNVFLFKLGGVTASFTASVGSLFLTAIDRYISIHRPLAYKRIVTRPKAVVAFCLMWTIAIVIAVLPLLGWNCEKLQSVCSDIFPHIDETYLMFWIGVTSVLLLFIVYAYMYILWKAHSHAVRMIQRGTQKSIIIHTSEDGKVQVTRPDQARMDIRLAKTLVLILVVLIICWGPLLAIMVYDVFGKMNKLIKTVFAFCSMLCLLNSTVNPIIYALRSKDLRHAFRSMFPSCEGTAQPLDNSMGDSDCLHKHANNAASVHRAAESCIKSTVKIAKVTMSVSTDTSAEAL
Sequence of Cannabinoid receptor 2 (P34972 whole entry): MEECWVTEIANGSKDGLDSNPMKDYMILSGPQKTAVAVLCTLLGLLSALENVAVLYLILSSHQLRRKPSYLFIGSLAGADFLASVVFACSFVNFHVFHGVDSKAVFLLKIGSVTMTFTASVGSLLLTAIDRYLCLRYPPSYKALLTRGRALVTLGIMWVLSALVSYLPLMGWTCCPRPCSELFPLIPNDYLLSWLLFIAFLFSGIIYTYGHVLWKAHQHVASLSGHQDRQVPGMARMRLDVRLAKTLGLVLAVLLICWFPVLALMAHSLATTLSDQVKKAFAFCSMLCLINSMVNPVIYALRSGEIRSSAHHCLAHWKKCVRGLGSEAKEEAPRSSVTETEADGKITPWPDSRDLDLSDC

`COc1ccc(/C=C2\CN(C(=O)Cn3ccnc3)Cc3c(C(=O)N[C@H](C)c4ccccc4)nn(-c4ccc(Cl)cc4Cl)c32)cc1`: the EC50 in [1] came out at 5 nM; in series [2], 370 nM. The concentration at 2 h in series [3] is less than 5 ng/mL; in series [4] it was 580 nM.
Regarding `COc1ccc(/C=C2\CN(C(=O)CS(N)(=O)=O)Cc3c(C(=O)N[C@H](C)c4ccccn4)nn(-c4ccc(Cl)cc4Cl)c32)cc1`, the EC50 is 8 nM in series [1] and 1450 nM in series [2]. This compound also yielded a Drug uptake in series [5] of 0.08 nmol/g. In addition, the concentration at 4 h in series [6] was 2090 nM. Also, the Kp at 4 h in series [7] was determined as 0.04.
On the same counts, the results for `COc1ccc(/C=C2\CN(C(=O)CN)Cc3c(C(=O)N[C@H](C)c4ccccc4)nn(-c4ccc(Cl)cc4Cl)c32)cc1` are 24 nM, more than 10000 nM, 0.07 nmol/g, 1530 nM and 0.04.
As to `C[C@@H](NC(=O)c1nn(-c2ccc(Cl)cc2Cl)c2c1CN(C(=O)CC(N)=O)C/C2=C\c1ccc(F)cc1)c1ccccn1`, the EC50 is 9 nM in [1] and more than 10000 nM in [2]. For the same compound, the figures for the concentration at 4 h in [8] and in series [9] were less than 5 ng/mL and 2290 nM, respectively.
As to `C[C@@H](NC(=O)c1nn(-c2ccc(Cl)cc2)c2c1CN(C(=O)CNS(C)(=O)=O)C/C2=C\c1ccc(F)cc1)c1ccccn1`, the EC50 is 30 nM in [1] and more than 10000 nM in [2]. The compound also displayed a Drug uptake in series [5] of 0.09 nmol/g. The compound further registered a concentration at 4 h in series [6] of 1720 nM. In addition, the Kp at 4 h in [7] turned out to be 0.05.
For the compound `COc1ccc(/C=C2\CN(C(=O)c3cc[nH]n3)Cc3c(C(=O)N[C@H](C)c4ccccc4)nn(-c4ccc(Cl)cc4Cl)c32)cc1`, the results for the EC50 in series [1] and in [2] were 32 nM and 4660 nM, respectively. In addition, the concentration at 2 h in series [3] is less than 5 ng/mL; in [4], 1720 nM.
Take `C[C@@H](NC(=O)c1nn(-c2ccc(Cl)c(Cl)c2)c2c1CN(C(=O)Cn1cncn1)C/C2=C\c1ccc(Cl)cc1)c1ccccn1`: the EC50 in series [1] worked out at 6 nM; in series [2], 7850 nM. In addition, the Drug uptake in [5] is 0.35 nmol/g. In addition, the concentration at 4 h in [6] was found to be 4600 nM. Besides, the Kp at 4 h in series [7] was determined as 0.08.
As for `C[C@@H](NC(=O)c1nn(-c2ccc(Cl)cc2)c2c1CN(C(=O)c1nc[nH]n1)C/C2=C\c1ccc(Cl)cc1)c1ccccc1`, the EC50 is 17 nM in series [1] and more than 10000 nM in series [2]. The compound also had a Drug uptake in [3] of 0.47 nmol/g. This compound returned a concentration at 2 h in series [4] of 9780 nM. Besides, the Kp at 2 h in series [10] turned out to be 0.05.
Turning to `C[C@@H](NC(=O)c1nn(-c2ccc(Cl)cc2Cl)c2c1CN(C(=O)Cn1cnnn1)C/C2=C\c1ccc(F)cc1)c1ccccc1`, the EC50 in series [1] came out at 8 nM; in [2] it was 3240 nM. Besides, the Kp in [11] stood at 0.05. In addition, the Drug uptake in series [5] is reported as 0.43 nmol/g. Moreover, the concentration at 2 h in series [4] was found to be 9190 nM.
As to `C[C@@H](NC(=O)c1nn(-c2ccc(Cl)cc2Cl)c2c1CN(C(=O)[C@@H](O)CO)C/C2=C\c1ccc(Cl)cc1)c1ccccc1`, the EC50 in series [1] amounted to 18 nM; in [2] it was 2910 nM. In series [5], this compound yielded a Drug uptake of 0.17 nmol/g. In series [6], the concentration at 4 h is 2770 nM. Also, the Kp at 4 h in series [7] was found to be 0.06.
Taken in the same sequence, the figures for `COc1ccc(/C=C2\CN(C(=O)CCS(N)(=O)=O)Cc3c(C(=O)N[C@H](C)c4ccccn4)nn(-c4ccc(Cl)cc4Cl)c32)cc1` were 6 nM, 650 nM, 0.05 nmol/g, 1360 nM and 0.04.
Regarding `C[C@@H](NC(=O)c1nn(-c2ccc(Cl)cc2)c2c1CN(C(=O)c1nc[nH]n1)C/C2=C\c1ccc(Cl)cc1)c1ccccn1`, the EC50 in series [1] was 28 nM; in series [2], more than 10000 nM. In addition, the Drug uptake in series [3] came to 0.1 nmol/g. In series [4], this compound had a concentration at 2 h of 2380 nM. In addition, the Kp at 2 h in series [10] came out at 0.04.
On the same counts, the results for `COc1ccc(/C=C2\CN(C(=O)c3nc[nH]n3)Cc3c(C(=O)N[C@H](C)c4ccccc4)nn(-c4ccc(Cl)cc4Cl)c32)cc1` are 15 nM, 1760 nM, 0.05 nmol/g, 1480 nM and 0.03.
Regarding `C[C@@H](NC(=O)c1nn(-c2ccc(Cl)cc2Cl)c2c1CN(C(=O)CCC(N)=O)C/C2=C\c1ccc(F)cc1)c1ccccn1`, the half-maximal effective concentration (EC50) in series [1] was 20 nM; in [2] it was more than 10000 nM. The Drug uptake in series [5] came to 0.12 nmol/g. Also, the concentration at 4 h in [6] came out at 4250 nM. Moreover, the Kp at 4 h in [7] was 0.03.
For the compound `COc1ccc(/C=C2\CN(C(=O)Cn3cnnn3)Cc3c(C(=O)N[C@H](C)c4ccccc4)nn(-c4ccc(Cl)cc4Cl)c32)cc1`, the EC50 was 6 nM in [1] and 1130 nM in [2]. The Drug uptake in series [3] was found to be 0.07 nmol/g. Moreover, the concentration at 2 h in series [4] was found to be 2960 nM. Besides, the Kp at 2 h in [10] turned out to be 0.02.
Consider `C[C@@H](NC(=O)c1nn(-c2ccc(Cl)cc2Cl)c2c1CN(C(=O)Cn1cnnn1)C/C2=C\c1ccc(F)cc1)c1ccccn1`, for which the EC50 in series [1] came to 6 nM; in series [2], 8610 nM. This compound came in with a Drug uptake in [5] of 0.07 nmol/g. The concentration at 4 h in series [6] was found to be 2280 nM. For the same compound, the Kp at 4 h in series [7] turned out to be 0.03.
For `COc1ccc(/C=C2\CN(C(=O)Cn3ccnn3)Cc3c(C(=O)N[C@H](C)c4ccccc4)nn(-c4ccc(Cl)cc4Cl)c32)cc1`, the EC50 in series [1] turned out to be 4 nM; in [2], 1270 nM. In addition, the concentration at 2 h is less than 5 ng/mL in series [3] and 30 nM in series [4].
In the case of `COc1ccc(/C=C2\CN(C(=O)CC(=O)O)Cc3c(C(=O)N[C@H](C)c4ccccn4)nn(-c4ccc(Cl)cc4Cl)c32)cc1`, the EC50 in series [1] worked out at 11 nM; in series [2], 1940 nM. Further, the concentration at 4 h in series [5] (C57BL/6J, brain, read-out: Drug uptake) was less than 5 ng/mL; in series [6], 90 nM.
In the case of `C[C@@H](NC(=O)c1nn(-c2ccc(Cl)cc2Cl)c2c1CN(C(=O)c1nc[nH]n1)C/C2=C\c1ccc(F)cc1)c1ccccc1`, the EC50 in series [1] is 15 nM; in series [2], 1310 nM. Moreover, the Drug uptake in series [3] is 0.25 nmol/g. Also, the concentration at 2 h in [4] stood at 4480 nM. In addition, the Kp at 2 h in series [10] came out at 0.06.
Regarding `C[C@@H](NC(=O)c1nn(-c2ccc(Cl)c(Cl)c2)c2c1CN(C(=O)Cn1cnnn1)C/C2=C\c1ccc(F)cc1)c1ccccn1`, the EC50 was 7 nM in series [1] and 3660 nM in [2]. Also, the Drug uptake in series [5] came to 0.15 nmol/g. Further, the concentration at 4 h in series [6] was determined as 2820 nM. Moreover, in series [7], the Kp at 4 h is 0.05.
On the same counts, the results for `C[C@@H](NC(=O)c1nn(-c2ccc(Cl)cc2Cl)c2c1CN(C(=O)CNS(C)(=O)=O)C/C2=C\c1ccc(Cl)cc1)c1ccccn1` are 17 nM, more than 10000 nM, 0.17 nmol/g, 3320 nM and 0.05.
As to `C[C@@H](NC(=O)c1nn(-c2ccc(Cl)cc2)c2c1CN(C(=O)c1nc[nH]n1)C/C2=C\c1ccc(F)cc1)c1ccccc1`, the EC50 in [1] is 12 nM; in [2], more than 10000 nM. In series [3], this compound came in with a Drug uptake of 0.09 nmol/g. Besides, the concentration at 2 h in series [4] stood at 1320 nM. In addition, the Kp at 2 h in series [10] came out at 0.07.
In the case of `C[C@@H](NC(=O)c1nn(-c2ccc(Cl)cc2Cl)c2c1CN(C(=O)[C@@H](O)CO)C/C2=C\c1ccc(Cl)cc1)c1ccccn1`, the EC50 in [1] amounted to 22 nM; in [2], 5550 nM. Also, the Drug uptake in series [5] is 0.18 nmol/g. In addition, the concentration at 4 h in series [6] was determined as 2410 nM. The Kp at 4 h in [7] is 0.08.

As a reminder, the EC50 is the concentration needed to bring the measured effect to its halfway point.
